Results reported in patent publication US11564913B2, “Compositions and methods for treating cancer” (Children's Hospital Medical Center, priority 2019, dated 2023).

Legend:
[1] = tested on: active Cdc42 in MDA-MB-231 cells; assay: Active GTPase pull-down (GST-PAK-GBD); type: cell-based, human; conditions: 0-3 μM, 1 h
Procedure: (§1) FIG. 5: Cytoskeletal changes induced by IODVA1 treatment. IODVA1 inhibits lamellipodia and circular dorsal ruffle (CDR) formation in MDA-MB-231 cells and decreases Rac activation. (A) IODVA1 inhibits EGF-induced lamellipodia formation in MDA-MB-231 cells. MDA-MB-231 cells were plated on fibronectin-coated coverslips, serum starved for 4 h, incubated with the indicated concentrations of IODVA1 for 1 h, then EGF (50 ng/mL) stimulated, fixed and stained with Phalloidin Alexa Fluor 594 (F-Actin, pseudocolored red) and DAPI (nuclei, pseudocolored blue). […] The percentage of cells with CDRs was counted as the number of cells with CDRs normalized to the total number of cells in the field. Around 150 cells were counted per condition per experiment. Cells with multiple CDRs were counted only once. […] Levels of active Rac (RacGTP, % of control), active Cdc42 (Cdc42GTP, % of control) and active RhoA (RhoAGTP, % of control) were quantified using ImageJ and ImageLab and show combined data as mean±s.e.m. from at least 3 independent experiments. […]
(§2) To confirm that IODVA1 interferes with Rac activation, applicants checked the levels of active Rac and its downstream effector PAK1/2. MDA-MB-231 cells were incubated with IODVA1 (0-3 μM) for 1 h and levels of GTP-bound active Rac were measured by GST-PAK-GBD pull-downs and quantified (FIG. 5C). […]

[2] = tested on: active Rac (RacGTP) in MDA-MB-231 cells; assay: Active GTPase pull-down (GST-PAK-GBD); type: cell-based, human; conditions: 0-3 μM, 1 h, dose-dependent
Procedure: as §1, §2

[3] = tested on: Vav3−/− p190-BCR-ABL1 BM leukemic cells expressing full-length Vav3; assay: Vav3 rescue, cell cycle analysis; type: cell-based, murine; conditions: 10 μM, 18 h
From the text: FIG. 15: Expression of transgenic Vav3 re-sensitizes Vav3-deficient cells to IODVA1. (A) Vav3 domain structure, calponin-homology (CH), acidic region (Ac), Dbl-homology (DH), pleckstrin-homology (PH), zinc finger (ZF), Src-homology 2 and 3 (SH2/SH3). (B) Representative histogram data of the cell cycle analysis of wild-type (Vav3^+/+) and Vav3-deficient (Vav3^−/−) p190-BCR-ABL1 leukemic bone marrow cells expressing empty vector, full-length Vav3 or ΔCH mutant and treated with vehicle control (black) or IODVA1 at 5 (red) or 10 μM (dark grey) for 18 h. (C) Quantification of the average number of colonies made by bone marrow wild-type and Vav3^−/− p190-BCR-ABL1 leukemic bone marrow cells expressing empty vector, full-length Vav3 or ΔCH mutant and treated with vehicle control (black) or IODVA1 at 1 (light salmon), 5 (red) and 10 μM (dark grey). *** p≤0.001.
Next, we reasoned that if IODVA1 targets Vav3, rescuing Vav3^−/− leukemic cells by expressing exogenous Vav3 should re-sensitize those cells to IODVA1. We expressed full-length Vav3 or the dominant active ΔCH-mutant (FIG. 15A) in Vav3^−/− p190-BCR-ABL1-transformed murine bone marrow leukemic cells and analyzed changes in cell cycle 18 h post-treatment with vehicle control or IODVA1 (FIG. 15B). Expressing full-length Vav3 but not the empty vector re-sensitized the Vav3^−/− BM leukemic cells to IODVA1 as shown by a 5.8-fold increase in apoptosis (p=0.0005) and a 15% decrease (p=0.08) in cells in the S-phase at 10 μM.
For Vav3 rescue experiments, low density bone marrow cells from wild-type ([…]) or Vav3^−/− mice were transduced with bicistronic retroviral vector encoding p190 BCR-ABL1-IRES-YFP (yellow fluorescent protein) and YFP^+ cells were sorted 48 h post-transduction. […] Cell cycle was analyzed at 18 h post BrdU incorporation.
Cell cycle was analyzed by using in vitro incorporation of 5-Bromo-2-deoxyuridine using Brdu Flow kit (BD Pharmingen, Cat #552598). […] DNAse treatment was done according to the instructions and stained with anti BrdU and apoptosis was analyzed by 7-AAD staining through flow cytometry analysis.

OC1(c2ccccn2)N=C(Nc2nc3ccccc3[nH]2)N=C1c1ccccn1 (stereo not shown) [IODVA1, (Z)-2-((1H-benzo[d]imidazol-2-yl)imino)-4,5-di(pyridin-2-yl)-2,5-dihydro-1H-imidazol-5-ol]
levels of active Cdc42 [1]: decreased but only at the highest IODVA1 concentration
levels of active Rac [2]: significantly decreases
increase in apoptosis ([3]; p=0.0005): 5.8 fold
decrease in cells in the S-phase ([3]; p=0.08): 15%
